According to publication PMC9395446, “First-in-human phase 1/1b study to evaluate sitravatinib in patients with advanced solid tumors” (Investigational New Drugs, 2022):

Assay: Safety in phase 1/1b study (DLTs, TRAEs, TEAEs; CTCAE v4.03)
Assay type: in vivo, human
From the text: Safety assessments included evaluation of DLTs, AEs, physical examinations, vital sign measurements, electrocardiogram recordings and laboratory tests.
A DLT was defined as a grade ≥ 4 hematologic abnormality lasting ≥ 4 days; grade 3 thrombocytopenia with clinically significant bleeding; febrile neutropenia; clinically significant grade ≥ 3 non-hematologic AEs not related to underlying malignancy; intolerable grade 2 AEs; or toxicity resulting in an inability to deliver 80% of the dose during the first treatment cycle.
The safety population included all patients who received ≥ 1 dose of sitravatinib. […] The PK evaluable population included all patients with sufficient concentration-time data for PK parameter evaluation. The modified intent-to-treat (mITT) population included all phase 1b patients who received ≥ 1 dose of study drug.

## COCCNCc1ccc(-c2cc3nccc(Oc4ccc(NC(=O)C5(C(=O)Nc6ccc(F)cc6)CC5)cc4F)c3s2)nc1 [sitravatinib, Sitravatinib]
120 mg phase 1b
  Hyponatremia TEAE, grade ≥3: 3 (4.8) n (%)
  Hypophosphatemia TEAE, any grade: 3 (4.8) n (%)
  Hypophosphatemia TEAE, grade ≥3: 1 (1.6) n (%)
  Hypothyroidism TEAE, any grade: 19 (30.6) n (%)
  Hypothyroidism TRAE, any grade: 14 (22.6) n (%)
  Hypothyroidism TRAE, grade ≥3: 0 n (%)
  Infections and infestations TEAE, any grade: 18 (29.0) n (%)
  Infections and infestations TEAE, grade ≥3: 7 (11.3) n (%)
  Injury, poisoning, procedural complications TEAE, any grade: 11 (17.7) n (%)
  Injury, poisoning, procedural complications TEAE, grade ≥3: 0 n (%)
  Investigations TEAE, any grade: 34 (54.8) n (%)
  Investigations TEAE, grade ≥3: 7 (11.3) n (%)
  Lipase increased TEAE, any grade: 8 (12.9) n (%)
  Lipase increased TEAE, grade ≥3: 3 (4.8) n (%)
  Metabolism and nutrition disorders TEAE, any grade: 38 (61.3) n (%)
  Metabolism and nutrition disorders TEAE, grade ≥3: 11 (17.7) n (%)
  Musculoskeletal and connective tissue disorders TEAE, any grade: 28 (45.2) n (%)
  Musculoskeletal and connective tissue disorders TEAE, grade ≥3: 2 (3.2) n (%)
  Nausea TEAE, any grade: 19 (30.6) n (%)
  Nausea TEAE, grade ≥3: 0 n (%)
  Nausea TRAE, any grade: 14 (22.6) n (%)
  Nausea TRAE, grade ≥3: 0 n (%)
  Neoplasms benign, malignant, unspecified TEAE, any grade: 11 (17.7) n (%)
  Neoplasms benign, malignant, unspecified TEAE, grade ≥3: 8 (12.9) n (%)
  Nervous system disorders TEAE, any grade: 28 (45.2) n (%)
  Nervous system disorders TEAE, grade ≥3: 3 (4.8) n (%)
  PPE syndrome TEAE, any grade: 14 (22.6) n (%)
  PPE syndrome TEAE, grade ≥3: 6 (9.7) n (%)
  PPE syndrome TRAE, any grade: 13 (21.0) n (%)
  PPE syndrome TRAE, grade ≥3: 6 (9.7) n (%)
  Pain in extremity TEAE, any grade: 4 (6.5) n (%)
  Pain in extremity TEAE, grade ≥3: 0 n (%)
  Proteinuria TEAE, any grade: 13 (21.0) n (%)
  Proteinuria TEAE, grade ≥3: 2 (3.2) n (%)
  Proteinuria TRAE, any grade: 11 (17.7) n (%)
  Proteinuria TRAE, grade ≥3: 2 (3.2) n (%)
  Psychiatric disorders TEAE, any grade: 7 (11.3) n (%)
  Psychiatric disorders TEAE, grade ≥3: 2 (3.2) n (%)
  Rash TEAE, any grade: 9 (14.5) n (%)
  Rash TEAE, grade ≥3: 2 (3.2) n (%)
  Rash TRAE, any grade: 6 (9.7) n (%)
  Rash TRAE, grade ≥3: 2 (3.2) n (%)
  Renal and urinary disorders TEAE, any grade: 19 (30.6) n (%)
  Renal and urinary disorders TEAE, grade ≥3: 5 (8.1) n (%)
  Respiratory, thoracic and mediastinal disorders TEAE, any grade: 34 (54.8) n (%)
  Respiratory, thoracic and mediastinal disorders TEAE, grade ≥3: 3 (4.8) n (%)
  Serious TEAE: 21 (33.9) n (%)
  Serious TRAE: 5 (8.1) n (%)
  Skin and subcutaneous tissue disorders TEAE, any grade: 33 (53.2) n (%)
  Skin and subcutaneous tissue disorders TEAE, grade ≥3: 8 (12.9) n (%)
  Stomatitis TEAE, any grade: 11 (17.7) n (%)
  Stomatitis TEAE, grade ≥3: 1 (1.6) n (%)
  Stomatitis TRAE, any grade: 11 (17.7) n (%)
  Stomatitis TRAE, grade ≥3: 1 (1.6) n (%)
  TEAE grade ≥3: 45 (72.6) n (%)
  TEAE leading to death: 8 (12.9) n (%)
  TEAE leading to discontinuation: 12 (19.4) n (%)
  TEAE leading to treatment modification: 46 (74.2) n (%)
  TRAE grade ≥3: 32 (51.6) n (%)
  TRAE leading to death: 0 n (%)
  TRAE leading to discontinuation: 7 (11.3) n (%)
  TRAE leading to treatment modification: 42 (67.7) n (%)
  UTI TEAE, any grade: 6 (9.7) n (%)
  UTI TEAE, grade ≥3: 1 (1.6) n (%)
  Vascular disorders TEAE, any grade: 32 (51.6) n (%)
  Vascular disorders TEAE, grade ≥3: 12 (19.4) 12 (19.4) n (%)
  Vomiting TEAE, any grade: 12 (19.4) n (%)
  Vomiting TEAE, grade ≥3: 0 n (%)
  Vomiting TRAE, any grade: 9 (14.5) n (%)
  Vomiting TRAE, grade ≥3: 0 n (%)
  Weight decreased TEAE, any grade: 10 (16.1) n (%)
  Weight decreased TEAE, grade ≥3: 0 n (%)
  Weight decreased TRAE, any grade: 7 (11.3) n (%)
  Weight decreased TRAE, grade ≥3: 0 n (%)
150 mg
  Patients discontinued due to TRAEs: 17.2%
150 mg arm
  Patients with grade ≥ 3 TRAEs: 61.6%
  Patients with serious TRAEs: 22.2%
150 mg phase 1b
  ALT increased TEAE, any grade: 25 (25.3) n (%)
  ALT increased TEAE, grade ≥3: 3 (3.0) n (%)
